We go through 2 substances from PMC8022858, “Discovery of bone morphogenetic protein 7-derived peptide sequences that attenuate the human osteoarthritic chondrocyte phenotype” (Molecular Therapy. Methods & Clinical Development, 2021).

In the assay the test system is CAGA12 reporter (SMAD3 dependent) in SW1353 chondrocytic cells. The assay can be described thus: CAGA12 firefly luciferase reporter assay. In kind it is cell-based. The settings on record: 8 h peptide exposure, firefly normalized to Gaussia luciferase, relative to control (Figure 5B). On the procedure:
Figure 5 Molecular characterization of peptides p[63−82] and p[113−132] (A) A pool of OA-HACs (n = 4 donors) was transfected with a scrambled siRNA or with an NKX3-2 siRNA (100 nM siRNA) and cultured for 24 h. Cultures were then exposed to peptide p[63−82] or p[113−132] (100 nM peptide). Samples were harvested 24 h later and analyzed for the expression of the indicated mRNAs (normalized to 28S rRNA). (B) SW1353 chondrocytic cells were transfected with BRE (SMAD1/5/8 reporter) or CAGA12 (SMAD2/3 reporter) firefly luciferase-reporter plasmids. A CMV-Gaussia plasmid was cotransfected as a transfection control. Cells were then cultured for 24 h and subsequently exposed to control, p[63−82], or p[113−132] for 8 h. Firefly and Gaussia bioluminescence were measured in cells and medium (respectively), and relative light units (RLUs) of firefly luciferase were normalized for the Gaussia luciferase signal. The normalized firefly luciferase signal of the control condition was set at 1, and peptide conditions were calculated relative to the control condition (FL/GL). Error bars represent mean ± SEM; statistical significance for peptide conditions versus siScrambled or siNKX3-2 (A) or control condition (B) as determined by unpaired two-tailed Student’s t test is represented as ∗p < 0.05, ∗∗p < 0.01, and ∗∗∗p < 0.001. […]

Turning to H-AAYYSEGESAFPLNSYMNAT-OH [p[63−82]], the CAGA12-reporter activity result was “diminished”. In the case of H-SVLYFDDSSNVILKKYRNMV-OH [p[113−132]], the CAGA12-reporter activity result is “diminished”.
